{
  "source": "patent US20130202629A1",
  "about": "“USES OF PHOSPHOLIPID CONJUGATES OF SYNTHETIC TLR7 AGONISTS” (The Regents of the University of California, priority 2010, published 2013)",
  "key": {"[1]": {"assay": "Nanoparticle size and stability in PBS (Malvern Zetasizer)", "format": "physicochemical", "conditions": "50 μM or 100 μM", "method": "1V270 was dissolved in Phosal 50 PG (Phospholipid Gmbh, Cologne, Germany) to make a 20× concentrated solution. The Phosal 50 PG-1V270 mixture was further diluted (1:19) with nanopure water to make a 5% Phosal 50 PG:water suspension. The suspension was vortexed vigorously and sonicated in a sonicating bath for 10 minutes. The suspension was further sonicated with a probe sonicater (Branson Sonifier Cell Disrupter 185) at 30% power for a total of 30 seconds at 10 second intervals with 10 seconds rest between so as to not overheat the suspension. Finally, the suspension was passed through a 100 nm filter with syringe extruder a total of 10 times back and forth. The final nanoparticles were analyzed with a Malvern Zetasizer to check size distribution. The resulting particles may be referred to as nanoliposomes (a submicron bilayer lipid vesicle) (see Chapter 2 by Mozafari in: Liposomes, Methods in Molecular Biology, vol. 605, V. Weissing (ed.), Humana Press, the disclosure of which is incorporated by reference herein). Nanoliposomes provide more surface area and may increase solubility, bioavailability and targeting.\nUV-1V270 particles were diluted in PBS to 50 μM (A) or 100 μM (B) and particle size measured over time. […] The particle size of UV-1V270 in PBS was relatively constant with an average of about 110 nm regardless of concentration."}, "C57BL/6 mice [2]": {"test_system": "C57BL/6 mice", "assay": "In vivo evaluation of adverse effects after OVA plus TLR7 conjugate immunization", "conditions": "OVA mixed with conjugate, 10 nmoles per mouse"}, "Solubility": {"assay": "Solubility", "format": "physicochemical"}, "C57BL/6 mice [3]": {"test_system": "C57BL/6 mice", "format": "in vivo, mouse", "method": "Anti-OVA antibodies of the IgG subclasses (and in some embodiments specifically IgG1 and IgG2) were measured by ELISA, as described in Cho, H. J et al., “Immunostimulatory DNA-based vaccines induce cytotoxic lymphocyte activity by a T-helper cell-independent mechanism” [see comments], Nat. Each ELISA plate contained a titration of a previously quantitated serum to generate a standard curve. The titer of this standard was calculated as the highest dilution of serum that gave an absorbance reading that was double the background. The various sera samples were tested at a 1:100 dilution. The results are expressed in units per mL, calculated based on the units/mL of the standard serum, and represent the mean±SEM of five animals in each group. * and T denote P<0.05 and P<0.01 by One-way ANOVA compared to the mice immunized with OVA mixed with vehicle, respectively.\nSpleenocytes were prepared from the harvested spleens. […] The levels of IFNα in the culture supernatants were measured by ELISA (BD Bioscience PharMingen) as per the manufacturer's instructions (Kobayashi, H et al., Prepriming: a novel approach to DNA-based vaccination and immunomodulation”, Springer Semin. Immunopathol., 22:85 (2000)), and the results illustrated in FIG. 5C. Average total spleen cell number in each group were calculated and compared to the PBS-immunized groups to monitor the spleen cell proliferation. Data are mean±SEM of five mice and are representative of three independent experiments.\nThe efficiency of adjuvanticity was assessed by measurement of the levels and isotypes of the antigen-specific IgG that the vaccine induces, in particular IgG1 and IgG2 (Mosmann, T. R., and Coffman, R. L., ‘TH1 and TH2 cells: different patterns of lymphokine secretion lead to different functional properties’, Annual Review Immunology, 7:145 (1989)). […] ISS-ODN was used as a potent Th1 adjuvant positive control."}, "[4]": {"test_system": "Anthrax Sterne strain spores", "format": "in vivo, Bacillus anthracis"}, "TLR7": {"target": "T1, TLR7 (Homo sapiens, UniProt Q9NYK1)", "T1 sequence (Q9NYK1 27-1049)": "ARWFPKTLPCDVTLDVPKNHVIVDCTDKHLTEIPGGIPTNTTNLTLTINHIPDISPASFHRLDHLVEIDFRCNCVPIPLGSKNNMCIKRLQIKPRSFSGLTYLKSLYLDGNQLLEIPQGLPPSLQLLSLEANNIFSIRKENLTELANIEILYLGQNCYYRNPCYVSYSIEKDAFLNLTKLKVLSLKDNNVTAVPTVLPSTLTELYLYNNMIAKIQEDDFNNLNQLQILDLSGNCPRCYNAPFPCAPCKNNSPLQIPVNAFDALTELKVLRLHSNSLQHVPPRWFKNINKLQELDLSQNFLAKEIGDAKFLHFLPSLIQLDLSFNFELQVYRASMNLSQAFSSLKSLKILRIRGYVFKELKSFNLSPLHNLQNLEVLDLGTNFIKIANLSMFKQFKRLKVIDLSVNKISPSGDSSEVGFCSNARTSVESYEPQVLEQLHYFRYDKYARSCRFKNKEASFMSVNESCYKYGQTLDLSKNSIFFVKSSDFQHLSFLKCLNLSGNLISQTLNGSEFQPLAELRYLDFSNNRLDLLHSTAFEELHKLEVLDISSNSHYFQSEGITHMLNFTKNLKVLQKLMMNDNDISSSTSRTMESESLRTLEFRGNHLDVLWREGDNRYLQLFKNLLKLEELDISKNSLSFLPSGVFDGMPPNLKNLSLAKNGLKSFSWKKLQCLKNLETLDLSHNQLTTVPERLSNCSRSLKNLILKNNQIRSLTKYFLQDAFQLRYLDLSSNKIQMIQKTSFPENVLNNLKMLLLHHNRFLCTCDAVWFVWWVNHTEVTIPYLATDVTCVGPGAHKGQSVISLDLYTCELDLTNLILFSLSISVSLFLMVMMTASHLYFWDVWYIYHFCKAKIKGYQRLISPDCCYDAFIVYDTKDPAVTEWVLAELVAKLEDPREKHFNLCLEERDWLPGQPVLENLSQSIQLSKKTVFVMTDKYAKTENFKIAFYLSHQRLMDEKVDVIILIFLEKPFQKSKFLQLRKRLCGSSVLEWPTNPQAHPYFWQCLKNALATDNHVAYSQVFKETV", "assay": "Cytokine induction (IL-6, IFNalpha1; Luminex) in human PBMC", "format": "cell-based", "conditions": "18 hours, IL-6 (FIG. 3A)"}},
  "note": "“And” between values parts separate entries of the source, which are not always exact repeats. Equal entries are not always repeated.",
  "data": [
    {"smiles": "CCCCCCCC/C=C\\CCCCCCCC(=O)OCC(COP(=O)(O)OCCNC(=O)c1ccc(Cn2c(=O)[nH]c3c(N)nc(OCCOC)nc32)cc1)OC(=O)CCCCCCC/C=C\\CCCCCCCC", "note": "(stereo not drawn) [Compound 6, 2-(4-((6-amino-2-(2-methoxyethoxy)-8-oxo-7H-purin-9(8H)-yl)methyl)benzamido)ethyl 2,3-bis(oleoyloxy)propyl phosphate]", "values": [
      {"measurement": "nanoparticle stability over time", "setting": "[1]", "value": "generally stable over time"},
      {"measurement": "particle size, average diameter", "setting": "[1]; regardless of concentration", "value": "about 110 nm"},
      {"measurement": "average body weights versus mice injected saline", "setting": "C57BL/6 mice [2]", "value": "No significant differences"},
      {"measurement": "solubility, in words", "setting": "Solubility; aqueous solution / suitable solvents for testing", "value": "difficulty in dissolution"},
      {"measurement": "upper limit of solubility", "setting": "Solubility; in PBS", "value": "~100", "unit": "µM"},
      {"measurement": "adjuvant activity when administered with the antigen ovalbumin", "setting": "C57BL/6 mice [3]; mouse, in vivo", "value": "potent adjuvant"},
      {"measurement": "earliest induction of OVA-specific antibodies of the IG subclass (FIG. 5A)", "setting": "C57BL/6 mice [3]; s.c. 20 μg OVA + 10 nmol conjugate on days 0 and 7", "value": 14, "unit": "days"},
      {"measurement": "OVA-specific IFN secretion by spleen cells", "setting": "C57BL/6 mice [3]; splenocytes of day 56 restimulated with OVA (FIG. 5C)", "value": "enhanced"},
      {"measurement": "survival on day 30, long term experiment", "setting": "[4]; IRS mixed with 1 nmol, i.n. three times at two week intervals, challenge four weeks later", "value": 100, "unit": "%"},
      {"measurement": "survival on day 15, short term experiment", "setting": "[4]; IRS with 1 nmol, single vaccination, challenge six days later", "value": "More than half"},
      {"measurement": "effective dose, unformulated in DMSO", "setting": "[4]; adjuvant with IRS", "value": 1, "unit": "nmol"},
      {"measurement": "efficacy compared with cholera toxin (CT) as adjuvant", "setting": "[4]; in vivo", "value": "slightly more effective than mice that received CT as an adjuvant"},
      {"measurement": "protection from pulmonary anthrax infection", "setting": "[4]; mucosal immunization with killed anthrax spores", "value": "completely protected mice from pulmonary anthrax infection"},
      {"measurement": "spore-specific cellular immune responses", "setting": "[4]; splenocytes of surviving mice cultured with IRS for 5 days", "value": "induced spore-specific Th1 and Th17 cellular immune responses"},
      {"measurement": "order of TLR7 conjugate potency", "setting": "TLR7", "value": "(4b)>(6)>(9)>/=SM>(8) and 4b>6>9>SM=8"}
    ]}
  ]
}
